“And” between values parts separate entries of the source, which are not always exact repeats. Equal values may be shown once. Where a SMILES comes first, the peptide text is derived from it. [ ]: non-standard residue; d: D form. NMeThr(4R-Me,4-(CH2)6NHAc) = CN[C@H](C(=O)O)[C@H](O)[C@H](C)CCCCCCNC(C)=O; NMeL = CN[C@@H](CC(C)C)C(=O)O; NMeV = CN[C@H](C(=O)O)C(C)C; dNMeA = CN[C@H](C)C(=O)O; Abu = CC[C@H](N)C(=O)O
Columns and labels:
[1] = in vitro; conditions: human, pH 7.4
Experimental: (§1) The supernatant was collected, diluted 1:1 with methanol, and drug concentrations measured by HPLC (Agilent 1100 series, UV detection) relative to standard curves. The polar surface area and log P were calculated using Molinspiration Cheminformatics (V2018.10, USA). Plasma protein binding was determined by equilibrium dialysis assays. Drug plasma samples were prepared to achieve a final concentration of 5 μM in human blood plasma by 500-fold dilution of 2.5 mM DMSO-drug stocks. Plasma solutions (300 μl) and PBS, pH 7.4 (500 μl), were added to adjacent chambers of Rapid Equilibrium Dialysis units (Thermo Scientific; 8K MWCO). Plates were sealed with plastic film and shaken on an orbital shaker at 225 rpm at 37° C. for 4.5 hr. Plasma and PBS samples were collected, and drugs extracted with a zinc sulfate/methanol precipitation method. After centrifugation at 3,300 rpm for 10 min, soluble drugs in methanol supernatants were analyzed by Liquid Chromatography (LC) Electrospray Ionization (ESI) Mass Spectrometry (LC-ESI-MS) (Agilent 1100 series, Santa Clara, USA) and quantified relative to standard curves.

[2] = clinical; design: species or system human; conditions: in vivo
Experimental: The study was conducted at a clinical research facility for investigational medicines (Celerion, Arizona, USA) as part of a clinical Phase 1 single-ascending-dose (SAD) study and followed all FDA ethical guidelines. Patients were selected according to standardized inclusion/exclusion criteria for a Phase I SAD study. Healthy volunteers 18-55 years of age with no evidence of ongoing disease (as determined by the study investigator), or any use of nicotine (30 days prior to screening), or drugs of abuse (within the preceding 2 years), or use of chronic prescription medication (within 30 days), or acute prescription medication (within 14 days), or systemic over-the-counter medications including vitamins and herbal/natural supplements (within 7 days prior to the study dose) were enrolled in the study. The SMEDDS was dispensed (approximately 3 ml) into a 100 ml Gibco clear bottle and a 15-fold excess of filtered water (HPLC grade) was added. The mixture was swirled gently for 1-2 minutes until fully dispersed. The SMEDDS in-water dose was placed in the refrigerator and orally administered within 2 hours. […] Samples were immediately frozen and analyzed by LC-ESI-MS within 5 days. Briefly, whole blood samples were thawed and extracted using a zinc sulfate/methanol precipitation method.

[3] = in vivo; design: species or system Sprague Dawley rats; conditions: Sprague Dawley, rat, po, 30 mg/kg/day, liver level relative to whole blood
Experimental: SERIES 1 1/3/3/2/9 (Vitamin E/Maisine® CC/Propylene Glycol/Ethanol/Cremophor® RH40 (w/w/w/w/w)) CRV431 SMEDDS (50 mg/ml) was administered to Sprague Dawley rats (n=6) by oral gavage at 30 mg/kg/day for 7 days. At 12 hours post-dose on day 7, the animals were sacrificed and whole blood and livers were extracted and frozen. CRV431 was quantitated in whole blood using LC-ESI-MS (as for the human pharmacokinetic studies). For quantitation of CRV431 in liver, one gram samples of liver tissue were added to 9 ml of homogenizing solution (1% formic acid in water) and homogenized using a TissueLyser (Qiagen) at 30 Hz for 10 minutes. Aliquots were removed and analyzed by LC-ESI-MS as described above.

[4] = physchem; conditions: pH 7.4, aqueous buffer, kinetic from dmso stock
Experimental: as §1

CC[C@@H]1NC(=O)[C@H]([C@H](O)[C@H](C)CCCCCCNC(C)=O)N(C)C(=O)[C@H](C(C)C)N(C)C(=O)[C@H](CC(C)C)N(C)C(=O)[C@H](CC(C)C)N(C)C(=O)[C@@H](C)NC(=O)[C@H](C)NC(=O)[C@H](CC(C)C)N(C)C(=O)[C@H](C(C)C)NC(=O)[C@H](CC(C)C)N(C)C(=O)[C@@H](C)N(C)C1=O [CRV431] (cyclo(A[dA][NMeL][NMeL][NMeV][NMeThr(4R-Me,4-(CH2)6NHAc)][Abu][dNMeA][NMeL]V[NMeL]))
fraction unbound at 4.5 hr, 5 μM [1]: 0.076 | half-life ([2]; human): ~100 h | Cmax ([2]; human, po, 1 mg/kg): 334 ± 106 ng/mL | Cmax relative to Neoral® ([2]; 2.5 mg/kg): slightly greater than Neoral® | overall exposure (AUC) relative to Neoral® ([2]; 2.5 mg/kg): approximately 14 times | Kp [3]: 6.5 | solubility [4]: 115 µg/mL and 115 µM
